According to patent US20240009223A1, “6-THIO-2'-DEOXYGUANOSINE (6-THIO-DG) RESULTS IN TELOMERASE DEPENDENT TELOMERE DYSFUNCTION AND CELL DEATH IN VARIOUS MODELS OF THERAPY-RESISTANT CANCER CELLS” (The Board of Regents of The University of Texas System, priority 2016, published 2024):

Legend:
[1] = test system: 12 BRAF-mutant human metastatic melanoma cell lines; experiment: Long-term cell growth assay, 12 BRAF-mutant melanoma cell lines; assay type: cell-based; conditions: 9-12 days
Experimental: FIGS. 1A-1B show long-term cell growth assay of 12 non-melanoma cancer cell lines (FIG. 1A) and 12 BRAF-mutant melanoma cell lines (FIG. 1B) that were treated with 6-thio-dG (6dG) or BIBR 1532 (BIBR) at indicated doses for 9 to 12 days.
Given the prevalence of TERT promoter mutations in melanoma and the potency of telomerase-directed 6-thio-dG therapy in inhibiting cell proliferation of telomerase activity-positive lung and colon cancer cells, the efficacy of 6-thio-dG in the BRAF-mutant melanoma subtype was tested. To that end, a panel of 12 BRAF-mutant human metastatic melanoma cell lines were treated with 6-thio-dG and BIBR 1532 for 9-12 days, respectively.

[2] = test system: mTOR-S6 signaling axis in 13-456-3-3 xenografts; experiment: RPPA of 13-456-3-3 xenografts; assay type: in vivo, human
Text: (§1) Analysis of Gene Expression Microarray Data and Reverse Phase Protein Array (RPPA) Data. The raw data of gene expression microarrays generated from Illumina Chips were normalized, background-corrected and summarized using the R package “lumi”. […] To reduce false positives, the unexpressed probes were removed. The R package “limma” was employed for gene differential expression analysis, followed by multiple test correction by the Benjamini and Hochberg procedure. […] The inventors also conducted GSEA as previously reported. For GSEA, they analyzed gene sets obtained from the Molecular Signatures Database (world-wide-web at broadinstitute.org/gsea/msigdb/). The same differential expression analysis method was applied to RPPA data.

LOX-IMVI BR cells = experiment: Telomere dysfunction Induced Foci (TIF) assay / γ-H2AX DNA damage foci; assay type: cell-based, human; conditions: 5 μM, compared to the control
Experimental: Telomere dysfunction Induced Foci (TIF) Assay. The TIF assay is based on the co-localization detection of DNA damage by an antibody against gamma-H2AX, and telomeres using FITC-conjugated telomere sequence ([…])3-specific peptide nucleic acid (PNA) probe. Briefly, LOX-IMVI-BR cells were seeded to 6-well plate (50,000 cells/well). After cells adhered to the surface (next day), 6-thio-dG was added with fresh medium. Cells were treated with or without 6-thio-dG at 5 μM every two days for 4 days. Then cells were harvested and cell numbers were counted. 100,000 cells were re-plated in 4-well chamber slides. After cells adhered to the chamber slide (next day), cells were rinsed twice with 1×PBS and fixed in 4% paraformaldehyde in PBS for 10 minutes. Cells were washed twice with PBS and permeabilized in 0.5% Triton X-100 in PBS for 10 minutes. Following permeabilization, cells were washed three times with PBS. Cells were blocked with 0.2% Fish gelatin and 0.5% BSA in PBS for 30 minutes. Gamma-H2AX (mouse) (Millipore, Billerica, MA) was diluted 1:1000 in blocking solution and incubated with cells for 2 hrs. […] Cells were fixed in 4% paraformaldehyde in PBS for 20 minutes at room temperature. […] Images were captured with Deltavision wide-field microscope using the 60× objective, then deconvoluted using Autoquant X3. Gamma-H2AX and TIFs were quantified using Imaris software.

UACC-903 BR xenografts = experiment: UACC-903 BR xenograft tumor volume; assay type: in vivo, human; conditions: UACC-903 BR xenografts in mice
Experimental: (§2) Melanoma Xenotransplantation and In vivo Studies. 100,000 melanoma cells were harvested from cell culture and re-suspended in culture medium and Matrigel at a 1:1 ratio. Cells were subcutaneously injected into mice, which were treated with indicated inhibitors when the tumor volume reached 100 mm^3. Mice were sacrificed at the end time point and solid tumors were collected. All animal experiments were performed in accordance with Wistar IACUC protocol 112330 in NOD.[…] 1 Wjl/SzJ mice.

[3] = test system: AXL, ARID1A and PDGFRβ in 1205Lu, LOX-IMVI BR and UACC-903 BR xenografts; experiment: RPPA of xenografts treated in vivo; set-up: species or system human; conditions: LOX-IMVI BR and UACC-903 BR xenografts treated in vivo
LOX-IMVI BR xenografts = experiment: LOX-IMVI BR xenograft tumor volume; assay type: in vivo, human; conditions: LOX-IMVI BR xenografts in mice
Experimental: as §2

[4] = test system: PLK1, PDGFRβ, ARID1A and AXL in A375, UACC-903 and WM9; experiment: RPPA of 3 BRAF-mutant melanoma cell lines; assay type: cell-based, human; conditions: 120 hours
[5] = test system: AXL, ARID1A and PLK1 in 13-456-5-3 xenografts; experiment: RPPA of 13-456-5-3 xenografts; assay type: in vivo, human
Text: as §1

1205Lu xenografts = experiment: 1205Lu xenograft tumor volume; assay type: in vivo, human; conditions: 1205Lu xenografts in mice; treated for 12 days
Experimental: FIGS. 3A-3E show long-term cell growth assay of 16 BRAF-mutant melanoma cell lines that were treated with 6-thio-dG or PLX4720 at indicated doses for 12 days (FIG. 3A). […] Cells were then harvested and co-stained with PSVue643 and Propidium iodide (PI). The average of 2 biological replicates are representative of 2 independent experiments; SA-β-gal staining of 4 BRAF-mutant melanoma cell lines treated with 6-thio-dG at 5 μM for 9 days (FIG. 3D). […] Melanoma Xenotransplantation and In vivo Studies. 100,000 melanoma cells were harvested from cell culture and re-suspended in culture medium and Matrigel at a 1:1 ratio. Cells were subcutaneously injected into mice, which were treated with indicated inhibitors when the tumor volume reached 100 mm^3. Mice were sacrificed at the end time point and solid tumors were collected. All animal experiments were performed in accordance with Wistar IACUC protocol 112330 in NOD.[…] 1 Wjl/SzJ mice.

PEO1-CR = experiment: Relative cell viability, PEO1-CR; assay type: cell-based, human; conditions: 5 days
Experimental: (§3) Additionally, the efficacy of 6-thio-dG was tested using two human ovarian cancer cell lines, PEO4 and PEO1-CR. PEO4 is a derivative line of BRCA1/2-mutant PEO1 that regains homologous recombination by BRCA reversion mutation. […] Importantly, all three cell lines were sensitive to 6-thio-dG after the 5-day treatment (FIGS. 14H-14J).

[6] = test system: normal epidermal keratinocytes; experiment: FACS analysis of apoptosis and cell death, normal keratinocytes; assay type: cell-based; conditions: 120 hours
Experimental: Cells were then harvested and co-stained with PSVue643 and Propidium iodide (PI). Representative samples of 2 independent experiments.
FACS Analysis of Apoptosis and Cell Death. Adherent cells were harvested with 0.05% Trypsin-EDTA, pooled with floating cells and then washed once with 1×DPBS. Cells were then pelleted and stained with PSVue® 643 at 0.5 μM and Propidium iodide at 50 ug/ml diluted in TES buffer for 5 min in the dark. Cells were then immediately subjected to FACS analysis using a BD LSR II flow cytometer and at least 5,000 cells per sample were acquired.

15-1761-1-2 xenografts = experiment: 15-1761-1-2 xenograft tumor volume; assay type: in vivo, human
Experimental: as §2

PEO4 = experiment: Relative cell viability, PEO4; assay type: cell-based, human; conditions: 5 days
Experimental: as §3

Nc1nc2c(ncn2[C@H]2C[C@H](O)[C@@H](CO)O2)c(=S)[nH]1 [6-thio-dG, 6-thio-2′-deoxyguanosine]
anti-proliferative effect [1]: anti-proliferative effect
mTOR-S6 signaling axis (RPPA) [2]: down-regulated
DNA damage (γ-H2AX foci) (LOX-IMVI BR cells): induced DNA damage
telomere dysfunction-induced foci (TIFs) (LOX-IMVI BR cells): increase in telomere dysfunction-induced foci
in vivo growth of xenografts (UACC-903 BR xenografts): significantly impaired the in vivo growth
AXL, ARID1A and PDGFRβ (RPPA) in xenografts [3]: inhibition
in vivo growth of xenografts (LOX-IMVI BR xenografts): significantly impaired the in vivo growth
PLK1, PDGFRβ, ARID1A and AXL at the protein level (RPPA) [4]: significantly down-regulated
therapy-resistant markers AXL, ARID1A and PLK1 (RPPA) [5]: down-regulated
tumor growth (1205Lu xenografts): significantly impair tumor growth
sensitivity (relative cell viability) (PEO1-CR): sensitive
cell viability of normal cells [6]: did not impair the cell viability
anti-tumor activity in xenografts (15-1761-1-2 xenografts): anti-tumor activity
sensitivity (relative cell viability) (PEO4): sensitive
